Experimental data taken from ChEMBL document CHEMBL5316339, “Discovery of a Series of Substituted 1H-((1,2,3-Triazol-4-yl)methoxy)pyrimidines as Brain Penetrants and Potent GluN2B-Selective Negative Allosteric Modulators” (J Med Chem, 2023).
Values after ≈ are worked out from the molar mass of the structure shown.

Experiments:
Cytochrome P450 2D6 = Cytochrome P450 2D6 (Homo sapiens, UniProt P10635); experiment: Inhibition of CYP2D6 in human liver microsomes incubated for 10 mins by LC-MS/MS analysis; type: ADME, Microsome
Cytochrome P450 2D6, sequence (P10635 whole entry): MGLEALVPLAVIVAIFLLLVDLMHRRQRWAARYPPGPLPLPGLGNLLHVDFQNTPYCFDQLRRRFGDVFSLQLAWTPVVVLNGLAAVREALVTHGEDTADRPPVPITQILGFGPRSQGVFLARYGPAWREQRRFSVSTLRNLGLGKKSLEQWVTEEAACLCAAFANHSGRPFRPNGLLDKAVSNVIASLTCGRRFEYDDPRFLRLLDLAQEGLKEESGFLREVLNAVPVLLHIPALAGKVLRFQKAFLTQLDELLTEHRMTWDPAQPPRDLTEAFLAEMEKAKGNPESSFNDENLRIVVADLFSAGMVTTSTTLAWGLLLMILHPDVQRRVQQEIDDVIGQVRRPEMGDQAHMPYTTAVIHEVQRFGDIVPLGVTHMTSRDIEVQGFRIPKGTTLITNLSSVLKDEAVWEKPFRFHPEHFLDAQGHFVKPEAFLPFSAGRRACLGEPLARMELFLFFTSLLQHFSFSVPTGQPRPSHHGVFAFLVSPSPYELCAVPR

Cytochrome P450 3A4 = Cytochrome P450 3A4 (Homo sapiens, UniProt P08684); experiment: Inhibition of CYP3A4 in human liver microsomes incubated for 10 mins by LC-MS/MS analysis; type: ADME, Microsome
Cytochrome P450 2C9 = Cytochrome P450 2C9 (Homo sapiens, UniProt P11712); experiment: Inhibition of CYP2C9 in human liver microsomes incubated for 10 mins by LC-MS/MS analysis; type: ADME, Microsome
MDR1 (P-gp) = experiment: Efflux ratio of apparent permeability from basolateral to apical side over apical to basolateral side in MDCK-MDR1 cells at 5 uM incubated for 60 mins by LC-MS/MS analysis; type: ADME, cell-based, Canis lupus familiaris; conditions: dog
Cytochrome P450 1A2 = molecular target: T1, Cytochrome P450 1A2 (Homo sapiens, UniProt P05177); experiment: Inhibition of CYP1A2 in human liver microsomes incubated for 10 mins by LC-MS/MS analysis; type: ADME, Microsome
T1 sequence (P05177 whole entry): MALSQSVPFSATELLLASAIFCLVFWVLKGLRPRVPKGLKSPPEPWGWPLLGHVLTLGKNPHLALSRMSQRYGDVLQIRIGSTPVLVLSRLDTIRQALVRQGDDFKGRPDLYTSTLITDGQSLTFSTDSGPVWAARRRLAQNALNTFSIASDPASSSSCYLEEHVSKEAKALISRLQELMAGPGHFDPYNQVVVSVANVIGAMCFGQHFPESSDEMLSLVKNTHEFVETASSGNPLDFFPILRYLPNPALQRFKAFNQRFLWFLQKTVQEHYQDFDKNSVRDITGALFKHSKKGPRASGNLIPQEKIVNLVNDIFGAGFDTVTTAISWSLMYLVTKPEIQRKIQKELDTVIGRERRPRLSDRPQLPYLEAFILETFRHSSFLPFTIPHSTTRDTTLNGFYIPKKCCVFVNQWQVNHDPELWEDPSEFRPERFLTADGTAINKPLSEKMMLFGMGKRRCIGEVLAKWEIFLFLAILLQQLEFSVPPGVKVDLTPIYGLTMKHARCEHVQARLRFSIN

Cytochrome P450 2C8 = molecular target: T2, Cytochrome P450 2C8 (Homo sapiens, UniProt P10632); experiment: Inhibition of CYP2C8 in human liver microsomes incubated for 10 mins by LC-MS/MS analysis; type: ADME, Microsome
T2 sequence (P10632 whole entry): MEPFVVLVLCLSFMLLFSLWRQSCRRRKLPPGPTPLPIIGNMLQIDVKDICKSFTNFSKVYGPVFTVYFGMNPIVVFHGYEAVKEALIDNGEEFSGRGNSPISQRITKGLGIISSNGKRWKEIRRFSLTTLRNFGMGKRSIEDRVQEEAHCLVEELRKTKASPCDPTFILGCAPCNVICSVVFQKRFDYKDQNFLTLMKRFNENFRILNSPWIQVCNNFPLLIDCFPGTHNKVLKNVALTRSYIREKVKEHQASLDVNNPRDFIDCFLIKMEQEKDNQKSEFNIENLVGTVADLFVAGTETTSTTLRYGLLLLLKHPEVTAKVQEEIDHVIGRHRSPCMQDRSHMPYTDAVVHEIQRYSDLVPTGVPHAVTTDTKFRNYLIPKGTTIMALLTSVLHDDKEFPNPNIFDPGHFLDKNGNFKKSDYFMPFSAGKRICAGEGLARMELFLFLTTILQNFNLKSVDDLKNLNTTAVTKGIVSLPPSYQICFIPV

[1] = molecular target: Voltage-gated inwardly rectifying potassium channel KCNH2 (Homo sapiens, UniProt Q12809); experiment: Displacement of [3H]dofetilide from human ERG expressed in HEK293 cells; type: toxicity, cell-based
Voltage-gated inwardly rectifying potassium channel KCNH2, sequence (Q12809 whole entry): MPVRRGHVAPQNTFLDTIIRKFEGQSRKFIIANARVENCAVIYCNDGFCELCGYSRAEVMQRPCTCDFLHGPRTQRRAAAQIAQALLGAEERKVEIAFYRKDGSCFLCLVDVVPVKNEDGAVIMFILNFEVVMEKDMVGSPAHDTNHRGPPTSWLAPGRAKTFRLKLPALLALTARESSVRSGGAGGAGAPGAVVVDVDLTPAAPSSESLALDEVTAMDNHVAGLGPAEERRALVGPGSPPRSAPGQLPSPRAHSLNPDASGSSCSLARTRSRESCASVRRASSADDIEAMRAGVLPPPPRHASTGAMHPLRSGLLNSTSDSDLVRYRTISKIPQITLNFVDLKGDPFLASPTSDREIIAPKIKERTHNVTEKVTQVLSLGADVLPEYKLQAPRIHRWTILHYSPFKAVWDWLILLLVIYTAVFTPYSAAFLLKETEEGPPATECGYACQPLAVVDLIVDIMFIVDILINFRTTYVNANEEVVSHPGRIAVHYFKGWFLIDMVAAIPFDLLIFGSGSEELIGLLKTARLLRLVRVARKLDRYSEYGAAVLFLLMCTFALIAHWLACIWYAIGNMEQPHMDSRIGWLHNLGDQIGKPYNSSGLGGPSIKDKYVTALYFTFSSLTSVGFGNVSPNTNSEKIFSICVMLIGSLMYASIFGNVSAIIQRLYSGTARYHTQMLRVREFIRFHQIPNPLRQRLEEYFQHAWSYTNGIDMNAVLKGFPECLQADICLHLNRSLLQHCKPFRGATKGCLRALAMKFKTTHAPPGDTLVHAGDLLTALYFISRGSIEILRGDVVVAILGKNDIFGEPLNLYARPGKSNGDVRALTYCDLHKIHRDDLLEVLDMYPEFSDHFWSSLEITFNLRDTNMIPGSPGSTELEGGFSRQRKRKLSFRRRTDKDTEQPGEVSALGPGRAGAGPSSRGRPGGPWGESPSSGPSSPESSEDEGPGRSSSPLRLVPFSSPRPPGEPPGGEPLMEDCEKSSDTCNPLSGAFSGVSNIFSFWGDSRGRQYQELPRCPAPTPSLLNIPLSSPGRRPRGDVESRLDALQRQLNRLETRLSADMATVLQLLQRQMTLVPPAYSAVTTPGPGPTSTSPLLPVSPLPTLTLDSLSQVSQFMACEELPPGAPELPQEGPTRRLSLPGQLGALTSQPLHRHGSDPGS

[2] = molecular target: Glutamate receptor ionotropic, NMDA 2B (Rattus norvegicus, UniProt Q00960); experiment: Displacement of 3-(3H) 1-(azetidin-1-yl)-2-(6- (4-fluoro-3-methyl-phenyl)pyrrolo-[…] pyridin-1yl)ethanone from GluN2B receptor in rat cortical membrane assessed as inhibition constant incubated for 2 hrs under shaking condition by liquid scintillator counter analysis; type: cell membranes, Cortex
Glutamate receptor ionotropic, NMDA 2B, sequence (Q00960 whole entry): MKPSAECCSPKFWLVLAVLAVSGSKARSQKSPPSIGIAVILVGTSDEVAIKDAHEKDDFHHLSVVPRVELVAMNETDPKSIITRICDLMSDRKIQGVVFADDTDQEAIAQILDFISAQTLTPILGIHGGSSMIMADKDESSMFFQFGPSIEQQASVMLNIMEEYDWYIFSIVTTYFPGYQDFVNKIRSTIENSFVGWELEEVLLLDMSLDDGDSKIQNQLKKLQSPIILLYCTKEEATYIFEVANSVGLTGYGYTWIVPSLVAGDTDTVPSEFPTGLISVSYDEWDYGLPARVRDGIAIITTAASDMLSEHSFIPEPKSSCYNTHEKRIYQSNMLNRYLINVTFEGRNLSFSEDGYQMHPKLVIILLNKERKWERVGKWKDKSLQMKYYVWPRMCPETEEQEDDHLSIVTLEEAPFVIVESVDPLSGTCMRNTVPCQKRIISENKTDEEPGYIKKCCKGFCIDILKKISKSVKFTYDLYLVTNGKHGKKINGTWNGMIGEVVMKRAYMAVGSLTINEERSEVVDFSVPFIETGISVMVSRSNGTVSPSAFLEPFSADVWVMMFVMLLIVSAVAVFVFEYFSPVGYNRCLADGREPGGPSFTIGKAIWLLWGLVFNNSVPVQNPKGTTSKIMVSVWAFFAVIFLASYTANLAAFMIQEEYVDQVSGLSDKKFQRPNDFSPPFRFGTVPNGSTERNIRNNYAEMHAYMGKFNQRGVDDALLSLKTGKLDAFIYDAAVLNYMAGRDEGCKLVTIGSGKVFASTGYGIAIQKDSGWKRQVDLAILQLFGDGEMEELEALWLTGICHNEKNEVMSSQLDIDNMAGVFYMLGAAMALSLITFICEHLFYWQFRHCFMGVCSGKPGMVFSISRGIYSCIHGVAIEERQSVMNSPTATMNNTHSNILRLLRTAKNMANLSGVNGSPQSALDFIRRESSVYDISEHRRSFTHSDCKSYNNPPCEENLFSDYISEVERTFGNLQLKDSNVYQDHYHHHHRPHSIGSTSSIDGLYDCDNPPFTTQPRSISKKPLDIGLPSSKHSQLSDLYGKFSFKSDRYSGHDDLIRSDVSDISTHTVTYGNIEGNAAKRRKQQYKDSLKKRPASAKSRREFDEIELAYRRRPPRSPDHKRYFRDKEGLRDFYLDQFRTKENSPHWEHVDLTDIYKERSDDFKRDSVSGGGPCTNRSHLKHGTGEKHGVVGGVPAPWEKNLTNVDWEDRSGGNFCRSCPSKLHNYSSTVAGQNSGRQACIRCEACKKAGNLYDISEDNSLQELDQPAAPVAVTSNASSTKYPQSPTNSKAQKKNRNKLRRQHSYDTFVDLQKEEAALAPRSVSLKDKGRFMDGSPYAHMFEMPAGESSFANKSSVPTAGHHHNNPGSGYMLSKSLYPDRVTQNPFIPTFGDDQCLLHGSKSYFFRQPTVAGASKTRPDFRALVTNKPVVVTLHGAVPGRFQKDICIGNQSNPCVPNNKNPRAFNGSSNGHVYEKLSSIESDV

[3] = molecular target: Glutamate NMDA receptor; GRIN1/GRIN2B (Homo sapiens, UniProt Q05586+Q13224); experiment: Negative allosteric modulation of human GluN1A/GluN2B receptor expressed in T-REX-CHO cells preincubated for 5 mins followed by glutamate and glycine addition and measured after 5 mins by FLIPR assay; type: cell-based
Glutamate NMDA receptor; GRIN1/GRIN2B, sequence (Q13224 whole entry, other chains not shown): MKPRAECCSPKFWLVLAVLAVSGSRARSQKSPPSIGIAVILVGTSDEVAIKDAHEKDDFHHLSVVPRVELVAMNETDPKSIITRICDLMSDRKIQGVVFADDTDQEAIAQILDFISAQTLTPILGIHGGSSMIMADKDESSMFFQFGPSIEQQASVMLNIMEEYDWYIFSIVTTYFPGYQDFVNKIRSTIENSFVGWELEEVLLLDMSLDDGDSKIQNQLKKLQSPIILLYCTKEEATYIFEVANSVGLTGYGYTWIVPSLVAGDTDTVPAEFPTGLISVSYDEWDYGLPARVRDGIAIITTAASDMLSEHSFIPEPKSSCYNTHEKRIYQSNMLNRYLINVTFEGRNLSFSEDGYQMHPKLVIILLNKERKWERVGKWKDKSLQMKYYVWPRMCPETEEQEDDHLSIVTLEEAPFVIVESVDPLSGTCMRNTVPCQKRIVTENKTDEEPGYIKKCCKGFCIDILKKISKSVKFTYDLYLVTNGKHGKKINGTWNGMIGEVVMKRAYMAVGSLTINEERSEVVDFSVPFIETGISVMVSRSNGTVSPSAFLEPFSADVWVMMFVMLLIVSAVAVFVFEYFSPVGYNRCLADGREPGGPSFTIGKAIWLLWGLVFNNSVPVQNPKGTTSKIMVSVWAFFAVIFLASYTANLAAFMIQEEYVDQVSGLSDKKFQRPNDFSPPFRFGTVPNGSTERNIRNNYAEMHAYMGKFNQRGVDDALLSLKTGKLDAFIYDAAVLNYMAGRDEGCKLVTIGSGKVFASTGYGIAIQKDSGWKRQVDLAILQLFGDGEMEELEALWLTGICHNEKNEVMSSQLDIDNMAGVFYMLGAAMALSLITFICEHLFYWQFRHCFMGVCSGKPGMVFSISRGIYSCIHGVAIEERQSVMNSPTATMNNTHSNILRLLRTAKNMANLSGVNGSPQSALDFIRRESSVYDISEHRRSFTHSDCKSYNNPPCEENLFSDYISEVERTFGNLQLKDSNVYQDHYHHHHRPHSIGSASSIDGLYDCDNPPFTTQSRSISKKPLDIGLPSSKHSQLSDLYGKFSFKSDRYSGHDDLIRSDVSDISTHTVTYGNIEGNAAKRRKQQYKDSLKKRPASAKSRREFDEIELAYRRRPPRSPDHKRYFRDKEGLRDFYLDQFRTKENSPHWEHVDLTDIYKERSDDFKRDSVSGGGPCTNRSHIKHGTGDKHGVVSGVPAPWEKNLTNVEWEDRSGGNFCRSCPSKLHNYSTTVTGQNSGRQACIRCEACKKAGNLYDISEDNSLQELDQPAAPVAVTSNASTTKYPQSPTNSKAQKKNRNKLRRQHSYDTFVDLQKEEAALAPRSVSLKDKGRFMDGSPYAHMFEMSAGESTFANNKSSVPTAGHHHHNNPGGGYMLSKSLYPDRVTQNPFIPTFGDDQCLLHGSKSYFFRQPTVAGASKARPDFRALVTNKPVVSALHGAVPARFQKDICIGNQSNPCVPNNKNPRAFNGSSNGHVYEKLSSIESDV

Cytochrome P450 2C19 = Cytochrome P450 2C19 (Homo sapiens, UniProt P33261); experiment: Inhibition of CYP2C19 in human liver microsomes incubated for 10 mins by LC-MS/MS analysis; type: ADME, Microsome
Cytochrome P450 2C19, sequence (P33261 whole entry): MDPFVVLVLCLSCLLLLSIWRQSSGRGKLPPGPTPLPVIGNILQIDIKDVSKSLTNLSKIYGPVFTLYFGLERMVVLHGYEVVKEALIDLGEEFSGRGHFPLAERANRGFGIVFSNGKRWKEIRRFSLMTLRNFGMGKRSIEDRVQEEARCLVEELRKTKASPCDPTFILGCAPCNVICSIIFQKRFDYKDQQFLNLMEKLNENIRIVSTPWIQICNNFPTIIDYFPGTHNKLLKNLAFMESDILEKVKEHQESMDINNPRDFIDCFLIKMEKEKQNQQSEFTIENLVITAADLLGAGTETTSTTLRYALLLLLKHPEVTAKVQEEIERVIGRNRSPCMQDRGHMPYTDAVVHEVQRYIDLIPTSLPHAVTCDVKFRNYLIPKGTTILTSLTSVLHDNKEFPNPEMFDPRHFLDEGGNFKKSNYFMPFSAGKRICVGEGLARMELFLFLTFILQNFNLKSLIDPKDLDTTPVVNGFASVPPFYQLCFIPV

[4] = Thermodynamic solubility in aqueous phosphate buffer at pH 2; type: physicochemical; conditions: read-out: Therm_solubility
[5] = Thermodynamic solubility in aqueous phosphate buffer at pH 7; type: physicochemical; conditions: read-out: Therm_solubility
[6] = Metabolic stability in rat liver microsomes assessed as extraction ratio; type: ADME, Microsome; conditions: read-out: ERH
[7] = Metabolic stability in human liver microsomes assessed as extraction ratio; type: ADME, Microsome; conditions: read-out: ERH

SMILES	IC50 (Cytochrome P450 2D6)	IC50 (Cytochrome P450 3A4)	IC50 (Cytochrome P450 2C9)	efflux ratio at 1 h, 5 µM (MDR1 (P-gp))	IC50 (Cytochrome P450 1A2)	IC50 (Cytochrome P450 2C8)	Ki [2]	IC50 [3]	IC50 (Cytochrome P450 2C19)	solubility thermodynamic [4]	solubility thermodynamic [5]	hepatic extraction ratio [6]	hepatic extraction ratio [7]	IC50 [1]
Nc1nc(OCc2cn(-c3ccc(F)c(OC(F)F)c3)nn2)ncc1F	–	–	–	3	–	–	44 nM	16 nM	–	560 µM (≈ 207 µg/mL)	28 µM (≈ 10.4 µg/mL)	–	–	> 10000 nM
Fc1cccnc1OCc1cn(C2CCC(Cl)C(OC(F)F)C2)nn1 (stereo not drawn)	2200 nM	–	–	–	5200 nM	–	889 nM	130 nM	5300 nM	–	–	–	–	–
Cc1cnc(OCc2cn(-c3cccc(C(F)F)c3)nn2)nc1	–	–	–	–	–	–	65 nM	25 nM	–	17 µM (≈ 5.39 µg/mL)	22 µM (≈ 6.98 µg/mL)	–	–	> 10000 nM
Cc1cnc(OCc2nnn(-c3cccc(C(F)F)c3)c2C)nc1	–	–	–	–	–	–	3500 nM	1200 nM	–	210 µM (≈ 69.6 µg/mL)	320 µM (≈ 106 µg/mL)	–	–	–
Fc1ccc(-n2cc(COc3nccc(N4CC(F)C4)n3)nn2)cc1OC(F)F	–	–	–	2.6	–	–	14 nM	16 nM	–	> 400 µM	< 4 µM	–	–	> 10000 nM
CNc1ccnc(OCc2cn(-c3ccc(F)c(OC(F)F)c3)nn2)n1	–	–	–	7.7	–	–	10 nM	7.8 nM	–	> 400 µM	24 µM (≈ 8.79 µg/mL)	–	–	> 10000 nM
Cc1cnc(OCc2cn(-c3ccnc(C)c3)nn2)nc1	–	–	–	1.2	–	–	1900 nM	770 nM	–	560 µM (≈ 158 µg/mL)	530 µM (≈ 150 µg/mL)	–	–	–
Fc1ccc(-n2cc(COc3ncc(N4CCC4)cn3)nn2)cc1OC(F)F	–	–	–	1	–	–	6.8 nM	11 nM	–	11 µM (≈ 4.32 µg/mL)	< 4 µM	–	–	> 10000 nM

More lines, main results first:

IC50 (Cytochrome P450 2D6)	IC50 (Cytochrome P450 3A4)	IC50 (Cytochrome P450 2C9)	efflux ratio at 1 h, 5 µM (MDR1 (P-gp))	IC50 (Cytochrome P450 1A2)	IC50 (Cytochrome P450 2C8)	Ki [2]	IC50 [3]	IC50 (Cytochrome P450 2C19)	solubility thermodynamic [4]	solubility thermodynamic [5]	hepatic extraction ratio [6]	hepatic extraction ratio [7]	SMILES	IC50 [1]
> 10000 nM	> 10000 nM	> 10000 nM	1.1	> 10000 nM	> 10000 nM	560 nM	360 nM	> 10000 nM	–	–	–	–	FC(F)Oc1cc(-n2cc(CNc3ncccn3)nn2)ccc1Cl	> 10000 nM
–	–	–	–	–	–	1800 nM	2500 nM	–	–	–	–	–	FC(F)Oc1cc(-n2cc(COc3cncnc3)nn2)ccc1Cl	–
–	–	–	1	–	–	630 nM	500 nM	7900 nM	–	–	–	–	FC(F)Oc1cc(-n2cc(CNc3ccccn3)nn2)ccc1Cl	8000 nM
–	–	–	11.8	–	–	57 nM	49 nM	–	560 µM (≈ 221 µg/mL)	510 µM (≈ 202 µg/mL)	–	–	CC(C)(O)c1cnc(OCc2cn(-c3ccc(F)c(OC(F)F)c3)nn2)nc1	> 10000 nM
30 nM	2600 nM	1100 nM	3.9	110 nM	3400 nM	35 nM	59 nM	420 nM	–	–	–	–	FC(F)Oc1cc(-n2cc(Cn3ccnc3)nn2)ccc1Cl	> 10000 nM
–	–	–	1.5	3400 nM	–	810 nM	390 nM	–	–	–	–	–	FC(F)Oc1cc(-n2cc(CNc3ncco3)nn2)ccc1Cl	> 10000 nM
–	–	–	0.91	–	–	680 nM	600 nM	–	–	–	–	–	FC(F)Oc1cc(-n2cc(COc3cnccn3)nn2)ccc1Cl	–
–	–	–	–	–	–	1870 nM	580 nM	–	–	–	–	–	FC(F)Oc1cc(-n2cc(COc3cccnn3)nn2)ccc1Cl	–
–	–	–	1.1	–	–	900 nM	840 nM	–	–	–	–	–	FC(F)Oc1cc(-n2cc(COc3ccncn3)nn2)ccc1Cl	–
–	–	–	0.9	–	–	13 nM	8.3 nM	–	92 µM (≈ 32.3 µg/mL)	70 µM (≈ 24.6 µg/mL)	–	–	Cc1ccnc(OCc2cn(-c3ccc(F)c(OC(F)F)c3)nn2)n1	> 10000 nM
–	–	–	–	–	–	67 nM	–	–	–	–	< 0.17	0.59	C[C@@H](Oc1ncccn1)c1cn(-c2ccc(Cl)c(OC(F)F)c2)nn1	–
–	–	–	–	–	–	1.3 nM	1.9 nM	–	–	–	0.51	0.83	Cc1cnc(OCc2cn(-c3ccc(Cl)c(OC(F)F)c3)nn2)nc1	5600 nM
